Data from patent US8703805B2 (Exelixis Patent Company LLC, priority 2005, dated 2014).

Test system: LXRα and/or LXRβ
Experiment: LXR/LXRE co-transfection assay (luciferase reporter, CV-1 cells)
Format: cell-based, human
Conditions: IC50 or EC50 for LXR (LXRα and/or LXRβ, not distinguished), tested as described in Example 109, CV-1 cells
Outline: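 Luciferase readout after 20 h compound exposure at 37 °C in CV-1 cells transiently expressing human LXRα or LXRβ with RXRα and an LXRE-driven reporter. Dose-response over 8 points at ½-log spacing, 4 wells each, fitted for EC50/IC50; values average ≥3 independent experiments, efficacy as % of high control.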

EC50, 1000 to 10000 nM:
CC(C)(C(=O)O)c1cccc(-c2ccc(-c3cc(C(F)(F)F)nn3-c3ncccc3C(F)(F)F)s2)c1 [Example 1165, 2-methyl-2-[3-(5-{3-(trifluoromethyl)-1-[3-(trifluoromethyl)pyridin-2-yl]-1H-pyrazol-5-yl}-2-thienyl)phenyl]propanoic acid]
CC(C)(O)c1cc(-c2ccc(-c3ccc(S(C)(=O)=O)cc3)s2)n(-c2ccccc2Cl)n1 [Example 804, 2-[1-(2-chlorophenyl)-5-{5-[4-(methylsulfonyl)phenyl]-2-thienyl}-1H-pyrazol-3-yl]propan-2-ol]
CC(C)(O)c1cc(-c2ccc(-c3cccc(S(C)(=O)=O)c3)s2)n(-c2ccc(F)cc2)n1 [Example 1263, 2-[1-(4-fluorophenyl)-5-{5-[3-(methylsulfonyl)phenyl]-2-thienyl}-1H-pyrazol-3-yl]propan-2-ol]
CS(=O)(=O)c1cccc(-c2ccc(-c3cc(C(=O)O)nn3-c3ccccc3C(F)(F)F)s2)c1 [Example 1193, 5-{5-[3-(methylsulfonyl)phenyl]-2-thienyl}-1-[2-(trifluoromethyl)phenyl]-1H-pyrazole-3-carboxylic acid]
CN(Cc1cccnc1)C(=O)c1cc(-c2ccc(-c3cccc(S(C)(=O)=O)c3)s2)n(-c2ccccc2Cl)n1 [Example 1271, 1-(2-chlorophenyl)-N-methyl-5-{5-[3-(methylsulfonyl)phenyl]-2-thienyl}-N-(pyridin-3-ylmethyl)-1H-pyrazole-3-carboxamide]
CC(C)(O)c1cc(-c2ccc(-c3cccc(S(C)(=O)=O)c3)s2)n(-c2ccc(Cl)cc2Cl)n1 [Example 1280, 2-[1-(2,4-dichlorophenyl)-5-{5-[3-(methylsulfonyl)phenyl]-2-thienyl}-1H-pyrazol-3-yl]propan-2-ol]
CC(C)(O)c1cc(-c2ccc(-c3cccc(O)c3)cc2)n(-c2ccccc2Cl)n1 [Example 1285, 4′-[1-(2-chlorophenyl)-3-(1-hydroxy-1-methylethyl)-1H-pyrazol-5-yl]biphenyl-3-ol]
Cc1cc(CC(=O)O)ccc1-c1ccc(-c2cc(C(F)(F)F)nn2-c2ncccc2C(F)(F)F)s1 [Example 1155, [3-methyl-4-(5-{3-(trifluoromethyl)-1-[3-(trifluoromethyl)pyridin-2-yl]-1H-pyrazol-5-yl}-2-thienyl)phenyl]acetic acid]
CC(C)(O)c1cc(-c2ccc(-c3cccc(S(C)(=O)=O)c3)s2)n(-c2ncccc2F)n1 [Example 1272, 2-[1-(3-fluoropyridin-2-yl)-5-{5-[3-(methylsulfonyl)phenyl]-2-thienyl}-1H-pyrazol-3-yl]propan-2-ol]
CC(C)(O)c1ccc(-c2ccc(-c3cc(C(F)(F)F)nn3-c3ccccc3Cl)s2)cc1 [Example 1241, 2-(4-{5-[1-(2-chlorophenyl)-3-(trifluoromethyl)-1H-pyrazol-5-yl]-2-thienyl}phenyl)propan-2-ol]
CS(=O)(=O)c1cccc(-c2ccc(-c3cc(C(F)(F)F)nn3-c3ccccc3Cl)cc2CN2CCOCC2)c1 [Example 1148]
CS(=O)(=O)c1cccc(-c2ccc(-c3cc(C(F)(F)F)nn3-c3ccccc3Cl)cc2C(=O)N2CCOCC2)c1 [Example 1142, 4-({4-[1-(2-chlorophenyl)-3-(trifluoromethyl)-1H-pyrazol-5-yl]-3′-(methylsulfonyl)biphenyl-2-yl}carbonyl)morpholine]
CC(C)(O)c1cc(-c2ccc(-c3cccc(S(C)(=O)=O)c3)s2)n(-c2cccc(C(F)(F)F)c2O)n1 [Example 1338, 2-[3-(1-hydroxy-1-methylethyl)-5-{5-[3-(methylsulfonyl)phenyl]-2-thienyl}-1H-pyrazol-1-yl]-6-(trifluoromethyl)phenol]

EC50, < 1000 nM:
Cn1c(-c2cccc(S(C)(=O)=O)c2)ccc1-c1cc(C(C)(C)O)nn1-c1ccccc1Cl [Example 1383, 2-(1-(2-chlorophenyl)-5-(1-methyl-5-(3-(methylsulfonyl)phenyl)-1H-pyrrol-2-yl)-1H-pyrazol-3-yl)propan-2-ol]
COC(=O)c1cc(-c2cc(-c3cccc(S(C)(=O)=O)c3)co2)n(-c2ccccc2Cl)n1 [Example 1234, methyl 1-(2-chlorophenyl)-5-{4-[3-(methylsulfonyl)phenyl]furan-2-yl}-1H-pyrazole-3-carboxylate]
CC(=O)c1cc(-c2cc(C(F)(F)F)nn2-c2ccccc2Cl)ccc1-c1cccc(S(C)(=O)=O)c1 [Example 1206, 1-{4-[1-(2-chlorophenyl)-3-(trifluoromethyl)-1H-pyrazol-5-yl]-3′-(methylsulfonyl)biphenyl-2-yl}ethanone]
CC(C)(O)c1cc(-c2cccc(Cl)c2Cl)n(-c2ccc(-c3cccc(S(C)(=O)=O)c3)cc2Cl)n1 [Example 135, 2-(1-(3-chloro-3′-(methylsulfonyl)biphenyl-4-yl)-5-(2,3-dichlorophenyl)-1H-pyrazol-3-yl)propan-2-ol]
CC(C)(C(=O)O)c1cccc(-c2ccc(-c3cc(C(F)(F)F)nn3Cc3ccc(Cl)s3)s2)c1 [Example 1166, 2-[3-(5-{1-[(5-chloro-2-thienyl)methyl]-3-(trifluoromethyl)-1H-pyrazol-5-yl}-2-thienyl)phenyl]-2-methylpropanoic acid]
CS(=O)(=O)c1cccc(-c2ccc(-c3cc(C(=O)NCCCN4CCCC4)nn3-c3ccccc3Cl)s2)c1 [Example 733, 1-(2-chlorophenyl)-5-{5-[3-(methylsulfonyl)phenyl]-2-thienyl}-N-(3-pyrrolidin-1-ylpropyl)-1H-pyrazol-3-carboxamide]
Cc1cc(-c2cccc(S(C)(=O)=O)c2)ccc1-n1nc(C(C)(C)O)cc1-c1ccccc1C(F)(F)F [Example 139, 2-(1-(3-methyl-3′-(methylsulfonyl)biphenyl-4-yl)-5-(2-(trifluoromethyl)phenyl)-1H-pyrazol-3-yl)propan-2-ol]
CC(C)(O)c1nn(-c2ccc(-c3cccc(S(C)(=O)=O)c3)cc2Cl)c(-c2c(Cl)cccc2Cl)c1Cl [Example 1414, 2-(4-chloro-1-(3-chloro-3′-(methylsulfonyl)biphenyl-4-yl)-5-(2,6-dichlorophenyl)-1H-pyrazol-3-yl)propan-2-ol]
CC(C)(O)c1cccc(-n2nc(C(F)(F)F)cc2-c2ccc(-c3cccc(S(C)(=O)=O)c3)s2)c1 [Example 1187, 2-{3-[5-{5-[3-(methylsulfonyl)phenyl]-2-thienyl}-3-(trifluoromethyl)-1H-pyrazol-1-yl]phenyl}propan-2-ol]
CC(C)(O)c1cc(-c2ccc(-c3cccc(S(C)(=O)=O)c3)s2)n(-c2c(F)cccc2Cl)n1 [Example 1344, 2-[1-(2-chloro-6-fluorophenyl)-5-{5-[3-(methylsulfonyl)phenyl]-2-thienyl}-1H-pyrazol-3-yl]propan-2-ol]
CC(C)(C#N)c1cc(-c2ccc(-c3cccc(S(C)(=O)=O)c3)s2)n(-c2ccccc2Cl)n1 [Example 1134, 2-[1-(2-chlorophenyl)-5-{5-[3-(methylsulfonyl)phenyl]-2-thienyl}-1H-pyrazol-3-yl]-2-methylpropanenitrile]
CCN(Cc1ccncc1)Cc1cc(-c2ccc(-c3cccc(S(C)(=O)=O)c3)s2)n(-c2ccccc2Cl)n1 [Example 485, N-{[1-(2-chlorophenyl)-5-{5-[3-(methylsulfonyl)phenyl]-2-thienyl}-1H-pyrazol-3-yl]methyl}-N-(pyridin-4-ylmethyl)ethanamine]
CS(=O)(=O)c1cccc(Oc2ccc(-c3cc(C(F)(F)F)nn3-c3ccccc3Cl)cc2)c1 [Example 68, 1-(2-chlorophenyl)-5-(4-{[3-(methylsulfonyl)phenyl]oxy}phenyl)-3-(trifluoromethyl)-1H-pyrazole]
CCS(=O)(=O)c1cccc(-c2ccc(-c3cc(C(C)(C)C#N)nn3-c3ccccc3Cl)s2)c1 [Example 1180, 2-[1-(2-chlorophenyl)-5-{5-[3-(ethylsulfonyl)phenyl]-2-thienyl}-1H-pyrazol-3-yl]-2-methylpropanenitrile]
CS(=O)(=O)c1cccc(-c2ccc(-c3c(Br)c(C(F)(F)F)nn3-c3c(Cl)cccc3Cl)s2)c1 [Example 1313, 4-bromo-1-(2,6-dichlorophenyl)-5-{5-[3-(methylsulfonyl)phenyl]-2-thienyl}-3-(trifluoromethyl)-1H-pyrazole]
CC(C)(O)c1cccc(-c2ccc(-c3cc(C(C)(C)O)nn3-c3ccccc3Cl)cc2)c1 [Example 1307, 2-{1-(2-chlorophenyl)-5-[3′-(1-hydroxy-1-methylethyl)biphenyl-4-yl]-1H-pyrazol-3-yl}propan-2-ol]
CC(C)(O)c1nn(-c2ccc(-c3cccc(S(C)(=O)=O)c3)cc2Cl)c(-c2ccccc2C(F)(F)F)c1Cl [Example 1421, 2-(4-chloro-1-(3-chloro-3′-(methylsulfonyl)biphenyl-4-yl)-5-(2-(trifluoromethyl)phenyl)-1H-pyrazol-3-yl)propan-2-ol]
CC(C)(O)c1nn(-c2c(Cl)cccc2Cl)c(-c2ccc(-c3cccc(S(C)(=O)=O)c3)s2)c1Cl [Example 1348, 2-[4-chloro-1-(2,6-dichlorophenyl)-5-{5-[3-(methylsulfonyl)phenyl]-2-thienyl}-1H-pyrazol-3-yl]propan-2-ol]
CC(O)(c1cc(-c2ccc(-c3cccc(S(C)(=O)=O)c3)s2)n(-c2ccccc2Cl)n1)C(F)(F)F (stereo not drawn) [Example 1181, 2-[1-(2-chlorophenyl)-5-{5-[3-(methylsulfonyl)phenyl]-2-thienyl}-1H-pyrazol-3-yl]-1,1,1-trifluoropropan-2-ol]
CC(C)(C(=O)O)c1cccc(-c2ccc(-c3cc(C(F)(F)F)nn3Cc3ccc(F)cc3F)s2)c1 [Example 1205, 2-[3-(5-{1-[(2,4-difluorophenyl)methyl]-3-(trifluoromethyl)-1H-pyrazol-5-yl}-2-thienyl)phenyl]-2-methylpropanoic acid]
